Source: patent publication US20070275100A1, “Use of gaseous nitric oxide as an anti-cancer agent” (priority 1998, published 2007)

Tested on: non-small cell lung cancer (NSCLC) cells lines
Experiment: MTS cell proliferation assay, 25,000 ppm gNO, NSCLC cell lines taken together (Examples 4 and 5)
Assay type: cell-based, human
Text: The purpose of this example is to illustrate the tumorcidal activity of high-dosage gNO. We examined the cellular sensitivity to 25,000 ppm of gNO on 5 non-small cell lung cancer (NSCLC) cells lines by an MTS cell proliferation assay.
Human lung cancer cell lines A549, NCI-H23, NCI-H460, HTB-58, H2170, and H441 (commercially available from American Type Culture Collection (“ATCC”), Manassas, Va.) were maintained in culture medium recommended by ATCC. All media were supplemented with 1% penicillin/streptomycin and 10% fetal bovine serum (commercially available from Invitrogen Gibco-BRL, Burlington, Ontario, Canada). All cell lines were incubated in a humidified incubator at 37° C. supplied with 5% carbon dioxide. The cell lines were tested regularly for the absence of Mycoplasma infections. The cells were routinely maintained in 25 cm tissue culture flasks (commercially available from BD Biosciences Discovery Labware, Oakville, Ontario, Canada) and were harvested by 0.25% trypsin (commercially available from Invitrogen-Gibco-BRL) treatment when they were in a logarithmic phase of growth for all experiments. […]
After 24 hours, the A549, NCI-H23, NCI-H460, HTB-58, H2170 and H441 cells were treated with 25,000 ppm gNO or air (control) for 1 minute, 3 minutes, 6 minutes, 9 minutes, 10 minutes, 20 minutes, and 30 minutes. Immediately following treatment, the viability of the cells was determined using a colorimetric MTS (3-(4,5-dimethylthiazol-2-yl)-5-(3-carboxymethoxyphenyl)-2-(4-sulfophenyl)-2H-tetrazolium, inner salt) cell proliferation assay (commercially available as the CellTiter 960 Aqueous One Solution Cell Proliferation Assay (MTS) from Promega, Madison, Wis., USA) according to the manufacturer's protocol. […] Absorbance was measured at 490 nm for each well using a micro-plate reader (commercially available from Dynex Technologies, Chantilly, Va., USA). The relative percentage of cell survival (viability) was calculated by dividing the absorbance of treated cells by that of control cells for each experimental time point. […]

[N]=O [gNO, nitric oxide]
viability at 25000 ppm (Homo sapiens, 0.15 h, at 9 minutes, read-out: viability, mean value of the other three NSCLC lines): 10.7 ± 2.08% | cells killed, all five cancer cell lines (between 6 and 9 minutes, Example 4): 75-95% | cells killed, all five cancer cell lines (between about 6 and about 9 minutes, repeat study, Example 5): 75-95%
